# Measured values taken from US4439426A, “Semisynthetic macrolidic antibiotics, intermediate compounds for their preparation and related pharmaceutical compositions containing them” (priority 1981, dated 1984).
# Legend:
# [1] = Stability in acidic environment at 25° C. (half-life of initial microbiological activity); assay type: physicochemical; conditions: aqueous solution
# Experimental: Stability in acidic environnment at 25° C. of the novel
# Note: t 1/2 represents the time for reducing to one half the initial powe
# of the antibiotic determined by microbiological method through diffusion
# on a plate using the test stock Microccocus luteus (Sarcina lutea) ATCC
# [2] = tested on: Acholeplasma laidlawii ATCC 23206 LRP 204; assay: Bacteriostatic power in solid medium (MIC); assay type: cell-based; conditions: Acholeplasma laidlawii, ATCC23206, read-out: Minimum inhibiting concentration
# From the text: (§1) the bacteriostatic power, expressed as the minimum inhibiting concentration (MIC) against both aerobic and anaerobic, Gram positive and Gram negative, bacterial stocks: the related results are reported in the tables 2 and 3.
# Bacillus subtilis LRP 25 = assay: Bacteriostatic power in solid medium (MIC); assay type: cell-based; conditions: Bacillus subtilis, LRP25, read-out: Minimum inhibiting concentration
# From the text: as §1
# [3] = tested on: Bacteroides fragilis ATCC 23745 LRP 205; assay: Bacteriostatic power in solid medium (MIC); assay type: cell-based; conditions: Bacteroides fragilis, ATCC23745, read-out: Minimum inhibiting concentration
# From the text: as §1
# [4] = tested on: Corynebacterium diphteriae LRP 24; assay: Bacteriostatic power in solid medium (MIC); assay type: cell-based; conditions: Corynebacterium, LRP24, read-out: Minimum inhibiting concentration
# From the text: as §1
# Escherichia coli LRP 50 = assay: Bacteriostatic power in solid medium (MIC); assay type: cell-based; conditions: Escherichia coli, LRP50, read-out: Minimum inhibiting concentration
# From the text: as §1
# [5] = tested on: Fusobacteriumnecrophroum ATCC 27852 LRP 210; assay: Bacteriostatic power in solid medium (MIC); assay type: cell-based; conditions: read-out: Minimum inhibiting concentration
# From the text: as §1
# [6] = tested on: Haemophilus influenzae ATCC 19418 LRP 213; assay: Bacteriostatic power in solid medium (MIC); assay type: cell-based; conditions: Haemophilus influenzae, ATCC19418, read-out: Minimum inhibiting concentration
# From the text: as §1
# [7] = tested on: Klelsiella pneumoniae LRP 54; assay: Bacteriostatic power in solid medium (MIC); assay type: cell-based; conditions: read-out: Minimum inhibiting concentration
# From the text: as §1
# [8] = tested on: Micrococcus luteus ATCC 15957 LRP 193; assay: Bacteriostatic power in solid medium (MIC); assay type: cell-based; conditions: Micrococcus luteus, ATCC15957, read-out: Minimum inhibiting concentration
# From the text: as §1
# [9] = tested on: Micrococcus luteus ATCC 9341 LRP 6; assay: Bacteriostatic power in solid medium (MIC); assay type: cell-based; conditions: Micrococcus luteus, ATCC9341, read-out: Minimum inhibiting concentration
# From the text: as §1
# [10] = tested on: Mycoplasma hominis I ATCC 14027 LRP 211; assay: Bacteriostatic power in solid medium (MIC); assay type: cell-based; conditions: Metamycoplasma hominis, ATCC14027, read-out: Minimum inhibiting concentration
# From the text: as §1
# [11] = tested on: Neisseria gonorrhoeae ATCC 19424 LRP 214; assay: Bacteriostatic power in solid medium (MIC); assay type: cell-based; conditions: Neisseria gonorrhoeae, ATCC19424, read-out: Minimum inhibiting concentration
# From the text: as §1
# [12] = tested on: Proteus vulgaris ATCC 6380 LRP 13; assay: Bacteriostatic power in solid medium (MIC); assay type: cell-based; conditions: Proteus vulgaris, ATCC6380, read-out: Minimum inhibiting concentration
# From the text: as §1
# [13] = tested on: Pseudomonas aeruginosa LRP 9; assay: Bacteriostatic power in solid medium (MIC); assay type: cell-based; conditions: Pseudomonas aeruginosa, LRP9, read-out: Minimum inhibiting concentration
# From the text: as §1
# Shigella sonnei LRP 5 = assay: Bacteriostatic power in solid medium (MIC); assay type: cell-based; conditions: LRP5, read-out: Minimum inhibiting concentration
# From the text: as §1
# [14] = tested on: Staphylococcus aureus ATCC 14154 LRP 78; assay: Bacteriostatic power in solid medium (MIC); assay type: cell-based; conditions: Staphylococcus aureus, ATCC14154, read-out: Minimum inhibiting concentration
# From the text: as §1
# [15] = tested on: Staphylococcus aureus ATCC 6538P LRP 14; assay: Bacteriostatic power in solid medium (MIC); assay type: cell-based; conditions: Staphylococcus aureus, ATCC6538P, read-out: Minimum inhibiting concentration
# From the text: as §1
# [16] = tested on: Staphylococcus aureus ATCC 6538P LRP 39; assay: Bacteriostatic power in solid medium (MIC); assay type: cell-based; conditions: Staphylococcus aureus, ATCC6538P, read-out: Minimum inhibiting concentration
# From the text: as §1
# [17] = tested on: Streptococcus faecalis LRP 7; assay: Bacteriostatic power in solid medium (MIC); assay type: cell-based; conditions: Enterococcus faecalis, LRP7, read-out: Minimum inhibiting concentration
# From the text: as §1
# [18] = tested on: Streptococcus faecalis subsp. zymogenes ATCC 12958 LRP 61; assay: Bacteriostatic power in solid medium (MIC); assay type: cell-based; conditions: Enterococcus faecalis, ATCC12958, read-out: Minimum inhibiting concentration
# From the text: as §1
# [19] = tested on: Streptococcus pneumoniae ATCC 6303 LRP 35; assay: Bacteriostatic power in solid medium (MIC); assay type: cell-based; conditions: Streptococcus pneumoniae, ATCC6303, read-out: Minimum inhibiting concentration
# From the text: as §1
# [20] = tested on: Streptococcus pneumoniae ATCC 6303 LRP 52; assay: Bacteriostatic power in solid medium (MIC); assay type: cell-based; conditions: Streptococcus pneumoniae, ATCC6303, read-out: Minimum inhibiting concentration
# From the text: as §1
# [21] = tested on: Streptococcus pneumoniae ATCC 6303 LRP 53; assay: Bacteriostatic power in solid medium (MIC); assay type: cell-based; conditions: Streptococcus pneumoniae, ATCC6303, read-out: Minimum inhibiting concentration
# From the text: as §1
# [22] = tested on: Streptococcus pyogenes ATCC 8668 LRP 197; assay: Bacteriostatic power in solid medium (MIC); assay type: cell-based; conditions: Streptococcus pyogenes, ATCC8668, read-out: Minimum inhibiting concentration
# From the text: as §1
# [23] = tested on: Streptococcus pyogenes ATCC 8668 LRP 34; assay: Bacteriostatic power in solid medium (MIC); assay type: cell-based; conditions: Streptococcus pyogenes, ATCC8668, read-out: Minimum inhibiting concentration
# From the text: as §1
# [24] = tested on: Clostridium perfrigens ATCC 3624 LRP 206; assay: microbe, parasite or virus in culture; assay type: cell-based; conditions: ATCC3624, solid medium, anaerobic, read-out: Minimum inhibiting concentration
# From the text: as §1
# Salmonella typhy LRP 8 = assay: microbe, parasite or virus in culture; assay type: cell-based; conditions: LRP8, solid medium, read-out: Minimum inhibiting concentration
# From the text: as §1
# [25] = tested on: Corynebacterium diphteriae LRP 24; assay: Bacteriostatic power in liquid medium (MIC); assay type: cell-based; conditions: Corynebacterium, LRP24, read-out: Minimum inhibiting concentration
# From the text: as §1
# [26] = tested on: Staphylococcus aureus ATCC 6538 P LRP 39; assay: Bacteriostatic power in liquid medium (MIC); assay type: cell-based; conditions: Staphylococcus aureus, ATCC6538, read-out: Minimum inhibiting concentration
# From the text: as §1
# [27] = tested on: Streptococcus faecalis subs. zymogenes ATCC 12958 LRP 61; assay: Bacteriostatic power in liquid medium (MIC); assay type: cell-based; conditions: Enterococcus faecalis, ATCC12958, read-out: Minimum inhibiting concentration
# From the text: as §1
# [28] = tested on: Streptococcus pneumoniae ATCC 6303 LRP 35; assay: Bacteriostatic power in liquid medium (MIC); assay type: cell-based; conditions: Streptococcus pneumoniae, ATCC6303, read-out: Minimum inhibiting concentration
# From the text: as §1
# [29] = tested on: Streptococcus pyogenes ATCC 8668 LRP 34; assay: Bacteriostatic power in liquid medium (MIC); assay type: cell-based; conditions: Streptococcus pyogenes, ATCC8668, read-out: Minimum inhibiting concentration
# From the text: as §1
# [30] = tested on: Corynebacterium diphteriae LRP 24; assay: Minimum bactericidal concentration (MBC); assay type: cell-based
# From the text: (§2) the bacterial power, expressed as the minimum bactericidal power (MBC) against some Gram positive aerobic stocks (table 5).
# [31] = tested on: Staphylococcus aureus ATCC 6538 P LRP 39; assay: Minimum bactericidal concentration (MBC); assay type: cell-based
# From the text: as §2
# [32] = tested on: Streptococcus faecalis subs. zymogenes LRP 61; assay: Minimum bactericidal concentration (MBC); assay type: cell-based
# From the text: as §2
# [33] = tested on: Streptococcus pneumoniae ATCC 6303 LRP 35; assay: Minimum bactericidal concentration (MBC); assay type: cell-based
# From the text: as §2
# [34] = tested on: Streptococcus pyogenes ATCC 8668 LRP 34; assay: Minimum bactericidal concentration (MBC); assay type: cell-based
# From the text: as §2
smiles,measurement,setting,value
"CC[C@H]1OC(=O)[C@H](C)[C@@H](O[C@H]2C[C@H](OC)[C@@H](O)[C@H](C)O2)[C@H](C)[C@@H](O[C@@H]2O[C@H](C)C[C@H](N(C)C)[C@H]2O)[C@](C)(O)C[C@](C)(F)C(=O)[C@H](C)[C@@H](O)[C@]1(C)O [P-80207, 3-O-oleandrosyl-5-O-desosaminyl-(8S)-8-fluoroerythronolide A]",half-life,[1]; pH 2,10 h
same,half-life,[1]; pH 3,100 h
same,MIC,[2],3.12 µg/mL
same,MIC,Bacillus subtilis LRP 25,0.39 µg/mL
same,MIC,[3],3.12 µg/mL
same,MIC,[4],0.049 µg/mL
same,MIC,Escherichia coli LRP 50,25 µg/mL
same,MIC,[5],12.5 µg/mL
same,MIC,[6],12.5 µg/mL
same,MIC,[7],25 µg/mL
same,MIC,[8],25 µg/mL
same,MIC,[9],0.049 µg/mL
same,MIC,[10],25 µg/mL
same,MIC,[11],0.097 µg/mL
same,MIC,[12],25 µg/mL
same,MIC,[13],25 µg/mL
same,MIC,Shigella sonnei LRP 5,25 µg/mL
same,MIC,[14],25 µg/mL
same,MIC,[15],0.39 µg/mL
same,MIC,[16],0.39 µg/mL
same,MIC,[17],0.39 µg/mL
same,MIC,[18],0.39 µg/mL
same,MIC,[19],0.049 µg/mL
same,MIC,[20],0.049 µg/mL
same,MIC,[21],0.097 µg/mL
same,MIC,[22],0.097 µg/mL
same,MIC,[23],0.049 µg/mL
same,MIC,[24],6.25 µg/mL
same,MIC,Salmonella typhy LRP 8,25 µg/mL
same,MIC,[25],0.049 µg/mL
same,MIC,[26],0.78 µg/mL
same,MIC,[27],0.78 µg/mL
same,MIC,[28],0.049 µg/mL
same,MIC,[29],0.097 µg/mL
same,MBC/MIC,[30],4
same,MBC,"[30]; Corynebacterium, LRP24, read-out: Minimum bactericidal concentration (MBC)",0.195 µg/mL
same,MBC/MIC,[31],8
same,MBC,"[31]; Staphylococcus aureus, ATCC6538, read-out: Minimum bactericidal concentration (MBC)",6.25 µg/mL
same,MBC/MIC,[32],8
same,MBC,"[32]; Enterococcus faecalis, read-out: Minimum bactericidal concentration (MBC)",6.25 µg/mL
same,MBC/MIC,[33],2
same,MBC,"[33]; Streptococcus pneumoniae, ATCC6303, read-out: Minimum bactericidal concentration (MBC)",0.097 µg/mL
same,MBC/MIC,[34],8
same,MBC,"[34]; Streptococcus pyogenes, ATCC8668, read-out: Minimum bactericidal concentration (MBC)",0.78 µg/mL
